The nature of experiment [1]: Inhibition of LPS + nigericin-induced IL-1beta secretion in PMA-differentiated human THP-1 cells at 20 uM incubated for 24 hrs by ELISA. The format is functional.
The target in experiment [2] is T1, Serine/threonine-protein phosphatase PGAM5, mitochondrial (Homo sapiens) (UniProt Q96HS1).
T1 sequence (whole entry): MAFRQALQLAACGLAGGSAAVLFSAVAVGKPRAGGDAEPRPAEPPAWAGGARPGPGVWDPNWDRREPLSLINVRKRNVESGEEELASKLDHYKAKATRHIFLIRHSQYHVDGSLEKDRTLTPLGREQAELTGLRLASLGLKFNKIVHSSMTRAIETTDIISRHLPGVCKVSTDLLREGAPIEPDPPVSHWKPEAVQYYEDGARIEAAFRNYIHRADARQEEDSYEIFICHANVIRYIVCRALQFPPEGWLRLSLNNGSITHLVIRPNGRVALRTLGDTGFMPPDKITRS
The experiment can be described thus: Binding affinity to […] in PMA-differentiated human THP-1 cells incubated for 2 hrs by SDS-PAGE and LC-MS/MS analysis. The format is cell-based.

Experiment [3] deals with 28S rRNA (cytosine-C(5))-methyltransferase (Homo sapiens) (UniProt Q96P11). Put plainly: Binding affinity to NSUN5 in PMA-differentiated human THP-1 cells incubated for 2 hrs by SDS-PAGE and LC-MS/MS analysis. The format is cell-based.
28S rRNA (cytosine-C(5))-methyltransferase (Homo sapiens), sequence (Q96P11 whole entry): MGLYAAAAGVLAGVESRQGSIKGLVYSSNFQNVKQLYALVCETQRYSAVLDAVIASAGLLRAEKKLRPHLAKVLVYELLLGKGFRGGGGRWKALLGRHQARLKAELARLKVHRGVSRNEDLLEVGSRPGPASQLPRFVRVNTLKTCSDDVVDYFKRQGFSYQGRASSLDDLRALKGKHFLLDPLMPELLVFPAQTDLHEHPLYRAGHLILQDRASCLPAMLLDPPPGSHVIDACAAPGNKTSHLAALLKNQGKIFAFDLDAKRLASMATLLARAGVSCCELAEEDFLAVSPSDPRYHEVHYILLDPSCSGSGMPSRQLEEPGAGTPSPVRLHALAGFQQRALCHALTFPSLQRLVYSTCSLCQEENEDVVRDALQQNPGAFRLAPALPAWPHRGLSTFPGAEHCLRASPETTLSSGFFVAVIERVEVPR
For experiment [4], the target named is T2, Uridine-cytidine kinase 2 (Homo sapiens) (UniProt Q9BZX2).
T2 sequence (whole entry): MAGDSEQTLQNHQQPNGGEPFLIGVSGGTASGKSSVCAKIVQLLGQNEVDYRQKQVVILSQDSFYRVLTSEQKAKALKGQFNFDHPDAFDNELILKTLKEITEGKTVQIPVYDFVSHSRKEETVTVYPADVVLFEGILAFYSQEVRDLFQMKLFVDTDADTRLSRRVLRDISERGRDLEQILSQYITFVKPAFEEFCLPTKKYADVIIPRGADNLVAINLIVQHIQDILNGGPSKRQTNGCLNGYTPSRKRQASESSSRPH
Put plainly: Binding affinity to UCK2 in PMA-differentiated human THP-1 cells incubated for 2 hrs by SDS-PAGE and LC-MS/MS analysis. The format is cell-based.

Experiment [5] has as its target DIMT1 dimethyladenosine transferase 1 (Homo sapiens) (UniProt Q9UNQ2). Put plainly: Binding affinity to DIM1 in PMA-differentiated human THP-1 cells incubated for 2 hrs by SDS-PAGE and LC-MS/MS analysis.
In experiment [6] the target is T3, Serine/threonine-protein kinase Nek7 (Homo sapiens, UniProt Q8TDX7). Put plainly: Binding affinity to NEK7 in PMA-differentiated human THP-1 cells incubated for 2 hrs by SDS-PAGE and LC-MS/MS analysis. The format is cell-based.
T3 sequence (Q8TDX7 whole entry, looked up): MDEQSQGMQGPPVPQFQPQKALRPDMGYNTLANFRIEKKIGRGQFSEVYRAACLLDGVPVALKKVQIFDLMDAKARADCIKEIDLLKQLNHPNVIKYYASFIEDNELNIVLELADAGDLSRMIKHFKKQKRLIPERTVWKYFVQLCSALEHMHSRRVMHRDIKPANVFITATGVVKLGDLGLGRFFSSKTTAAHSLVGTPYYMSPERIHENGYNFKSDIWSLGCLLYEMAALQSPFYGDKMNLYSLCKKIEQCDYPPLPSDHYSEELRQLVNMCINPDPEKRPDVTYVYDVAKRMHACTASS
Experiment [7] concerns the target Nicotinamide/nicotinic acid mononucleotide adenylyltransferase 1 (Homo sapiens) (UniProt Q9HAN9). The experiment can be described thus: Binding affinity to NMNAT1 in PMA-differentiated human THP-1 cells incubated for 2 hrs by SDS-PAGE and LC-MS/MS analysis. The format is cell-based.
Experiment [8] relates to HEK293. Put plainly: Inhibition of NEK7-NLRP3 interaction (unknown origin) expressed in HEK293 cells at 10 uM incubated for 24 hrs by Co-IP assay. The conditions noted are these: Homo sapiens. The format is cell-based.
Experiment [9] has as its target T3, Serine/threonine-protein kinase Nek7. The experiment can be described thus: Binding affinity to human recombinant NEK7 incubated for 2 hrs in presence of BBR by pull down assay.
The target is the same in experiment [10]. The experiment can be described thus: Binding affinity to human recombinant NEK7 incubated for 2 hrs by pull down assay relative to control. The conditions noted are these: THP-1.
The target is the same in experiment [11]. The experiment can be described thus: Binding affinity to NEK7 in PMA-differentiated human THP-1 cells incubated for 2 hrs by immunoblot analysis. In kind it is cell-based. In general terms: A western blot detects proteins with antibodies after separation by electrophoresis.
The target is the same in experiment [12]. Put plainly: Binding affinity to human recombinant NEK7 incubated for 2 hrs by pull down assay. The conditions noted are these: THP-1.

Activity calls are given as the source filed them. The rule behind the calls is not given here.

Nicotinamide/nicotinic acid mononucleotide adenylyltransferase 1 (Homo sapiens), sequence (Q9HAN9 whole entry): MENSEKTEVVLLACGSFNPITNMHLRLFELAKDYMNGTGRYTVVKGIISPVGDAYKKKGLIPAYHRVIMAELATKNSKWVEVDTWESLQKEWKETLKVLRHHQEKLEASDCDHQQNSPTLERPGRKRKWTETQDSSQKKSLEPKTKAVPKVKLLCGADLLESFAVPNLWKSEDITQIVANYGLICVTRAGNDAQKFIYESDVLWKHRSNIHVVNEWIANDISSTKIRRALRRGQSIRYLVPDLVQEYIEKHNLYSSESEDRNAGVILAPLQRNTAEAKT
DIMT1 dimethyladenosine transferase 1 (Homo sapiens), sequence (Q9UNQ2 whole entry, looked up): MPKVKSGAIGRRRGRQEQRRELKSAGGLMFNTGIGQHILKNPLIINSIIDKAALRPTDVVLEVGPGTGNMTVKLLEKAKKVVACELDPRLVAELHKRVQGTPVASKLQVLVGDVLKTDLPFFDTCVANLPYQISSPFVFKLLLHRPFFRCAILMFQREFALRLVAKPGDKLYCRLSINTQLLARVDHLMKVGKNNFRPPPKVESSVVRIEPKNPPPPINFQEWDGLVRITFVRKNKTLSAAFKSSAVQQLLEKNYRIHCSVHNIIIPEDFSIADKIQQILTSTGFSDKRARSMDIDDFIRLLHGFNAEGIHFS

A word on the inhibition: it is the drop in the measured response relative to a control, in per cent. With `COc1cc2c(cc1OCCCNC(=O)CCCC[C@@H]1SC[C@@H]3NC(=O)N[C@@H]31)CC[n+]1cc3c(OC)c(OC)ccc3cc1-2`, the inhibition at 20 µM in experiment [1] is -49%.

With `COc1c(OCCCCCNC(=O)CCCC[C@@H]2SC[C@@H]3NC(=O)N[C@@H]32)ccc2cc3[n+](cc12)CCc1cc2c(cc1-3)OCO2`, the inhibition at 20 µM in experiment [1] was 73%. Take `C#CCOCCOc1cc(C2(C(F)(F)F)N=N2)ccc1C(=O)NCCOCCOCCOc1ccc2cc3[n+](cc2c1OC)CCc1cc2c(cc1-3)OCO2`: the inhibition at 20 µM in [1] was found to be 80%. For the molecule `COc1cc2c(cc1OC)-c1cc3ccc(OC)c(OCCOCCNC(=O)CCCC[C@@H]4SC[C@@H]5NC(=O)N[C@@H]54)c3c[n+]1CC2`, the inhibition at 20 µM in experiment [1] amounted to 65%. On the same count and under the same terms, for `COc1cc2c(cc1OC)-c1cc3ccc(OC)c(OCCCNC(=O)CCCC[C@@H]4SC[C@@H]5NC(=O)N[C@@H]54)c3c[n+]1CC2` the value was 80%. For the molecule `COc1cc2c(cc1OCCCCCNC(=O)CCCC[C@@H]1SC[C@@H]3NC(=O)N[C@@H]31)CC[n+]1cc3c(OC)c(OC)ccc3cc1-2`, the inhibition at 20 µM in experiment [1] was determined as 70%.

Consider `COc1cc2c(cc1OC)-c1cc3ccc(OC)c(OCCCCCNC(=O)CCCC[C@@H]4SC[C@@H]5NC(=O)N[C@@H]54)c3c[n+]1CC2`, for which the inhibition at 20 µM in experiment [1] worked out at 77%. On to `COc1cc2c(cc1OC)-c1cc3ccc(OC)c(OCCOCCOCCNC(=O)CCCC[C@@H]4SC[C@@H]5NC(=O)N[C@@H]54)c3c[n+]1CC2`, for which the result in experiment [2], in experiment [3], in [4], in experiment [5], in [6] and in experiment [7] was inactive. For the same molecule, in experiment [1], the inhibition at 20 µM was -78%. Regarding `COc1ccc2cc3[n+](cc2c1OCCOCCNC(=O)CCCC[C@@H]1SC[C@@H]2NC(=O)N[C@@H]21)CCc1cc2c(cc1-3)OCO2`, in experiment [1], the inhibition at 20 µM came out at 10%. Take `COc1ccc2cc3[n+](cc2c1OCCCCCNC(=O)CCCC[C@@H]1SC[C@@H]2NC(=O)N[C@@H]21)CCc1cc2c(cc1-3)OCO2`: the inhibition at 20 µM in experiment [1] was -2%. In the case of `COc1ccc2cc3[n+](cc2c1OCCOCCOCCNC(=O)CCCC[C@@H]1SC[C@@H]2NC(=O)N[C@@H]21)CCc1cc2c(cc1-3)OCO2`, in [1], the inhibition at 20 µM came to 16%.

Turning to `COc1cc2c(cc1OCCOCCNC(=O)CCCC[C@@H]1SC[C@@H]3NC(=O)N[C@@H]31)CC[n+]1cc3c(OC)c(OC)ccc3cc1-2`, the inhibition at 20 µM in experiment [1] was 75%. Consider `COc1ccc2cc3[n+](cc2c1OCCCNC(=O)CCCC[C@@H]1SC[C@@H]2NC(=O)N[C@@H]21)CCc1cc2c(cc1-3)OCO2`, for which the inhibition at 20 µM in [1] was -92%.

Take `COc1cc2c(cc1OCCOCCOCCNC(=O)CCCC[C@@H]1SC[C@@H]3NC(=O)N[C@@H]31)CC[n+]1cc3c(OC)c(OC)ccc3cc1-2`: the inhibition at 20 µM in [1] was -79%.

Take `COc1c(OCCCNC(=O)CCCC[C@@H]2SC[C@@H]3NC(=O)N[C@@H]32)ccc2cc3[n+](cc12)CCc1cc2c(cc1-3)OCO2`: in experiment [1], the inhibition at 20 µM came out at 38%.

For `COc1cc2c(cc1OC)-c1cc3ccc(OC)c(OC)c3c[n+]1CC2`, in [8], the inhibition result is “inactive”. With `COc1c(OCCOCCOCCNC(=O)CCCC[C@@H]2SC[C@@H]3NC(=O)N[C@@H]32)ccc2cc3[n+](cc12)CCc1cc2c(cc1-3)OCO2`, the outcome in experiment [2], in experiment [3], in experiment [4], in experiment [5], in experiment [6] and in [7] was Active. The outcome in [11] and in experiment [12] was Active. Also, the inhibition at 20 µM in [1] is 83%. Moreover, the result in [9] was inactive. Further, the Activity entry in experiment [10] is “Dose-dependent effect”.

On to `COc1c(OCCOCCNC(=O)CCCC[C@@H]2SC[C@@H]3NC(=O)N[C@@H]32)ccc2cc3[n+](cc12)CCc1cc2c(cc1-3)OCO2`, for which the inhibition at 20 µM in experiment [1] amounted to 26%.
